Results as given in patent publication US8802405B2, “Ethanologenic Clostridium species, Clostridium coskatii” (Coskata, Inc., priority 2010, dated 2014).

Tests used:
C. autoethangenum [1] = experiment: Antibiotic susceptibility, growth at 100 μg/mL antibiotic; type: cell-based, Clostridium autoethanogenum; conditions: antibiotic 100 μg/ml, 37% CO, 35% H2, 22% CO2, balance N2, OD600
Description: (§1) The antibiotic susceptibility of Clostridium coskatii (PS02) was evaluated in Acetogen C3 media against 17 antibiotics at a concentration of 100 μg/mL (Table G). Clostridium coskatii (PS02) was resistant to erythromycin, nalidixic acid, spectinomycin, colistin, penicillin, streptomycin, and chloramphenicol. Three antibiotics differentiated C. coskatii from three ethanologenic Clostridia: C. ljungdahlii PETC, C. ragsgalei, and C. autoethanogenum. These differentiating antibiotics included, erythromycin, carbenicillin, and chloramphenicol (Table J).
(§2) Antibiotic susceptibility was based upon growth in media containing 100 μg/mL of each antibiotic. The atmosphere was 37% CO, 35% H2, 22% CO2 with a balance gas of N2. A positive growth response was recorded for an OD600 exceeding 0.2 AU.

C. ragsdalei [2] = experiment: as above; type: cell-based, Clostridium ragsdalei; conditions: antibiotic 100 μg/ml, 37% CO, 35% H2, 22% CO2, balance N2, OD600
Description: as §1, §2

C. ljungdahlii PETC [3] = experiment: as above; type: cell-based, Clostridium ljungdahlii PETC; conditions: for Antibiotic susceptibility pattern (+ indicates growth): C. ljungdahlii PETC, antibiotic 100 μg/ml, 37% CO, 35% H2, 22% CO2, balance N2, OD600; for Resistance to antibiotic (in words): Clostridium ljungdahlii PETC, 100 μg/mL
Description: as §1, §2

C. coskatii PS02 [4] = experiment: as above; type: cell-based, Clostridium coskatii (PS02); conditions: Acetogen C3 media; for Antibiotic susceptibility pattern (+ indicates growth): C. coskatii PS02, antibiotic 100 μg/ml, 37% CO, 35% H2, 22% CO2, balance N2, OD600; for Resistance to antibiotic (in words): Clostridium coskatii (PS02), 100 μg/mL
Description: as §1, §2

[5] = at 37° C.; cited from earlier work
C. autoethangenum [6] = experiment: Growth on various substrates (carbon substrate utilization); type: cell-based, Clostridium autoethanogenum; conditions: C. autoethangenum; 1 g/L carbon source; N2:CO2 (80%:20%); OD600
Description: (§3) Growth was measured spectrophotometrically at 600 nm (Spectronic 20D; Milton Roy). Carbon substrate utilization was based upon growth after consecutive transfers in media containing 1 g/L of each carbon source. For carbon substrates, screening was performed under an atmosphere of N2: CO2 (80%:20%). A positive growth response was recorded for an OD600 exceeding 0.2 AU. For citrate, additional ^13C-labeled isotope experiments were conducted to determine the nature of products by analysis of final 0.2 μm-filtered product samples by carbon NMR using a Bruker UltraShield Avance 400 MHz nuclear magnetic resonance spectrometer.

C. ragsdalei [7] = experiment: as above; type: cell-based, Clostridium ragsdalei; conditions: 1 g/L carbon source, N2:CO2 (80%:20%), OD600
Description: as §3

C. ljungdahlii PETC [8] = experiment: as above; type: cell-based, Clostridium ljungdahlii PETC; conditions: 1 g/L carbon source, N2:CO2 (80%:20%), OD600
Description: as §3

C. coskatii PS02 [9] = experiment: as above; type: cell-based, Clostridium coskatii (PS02); conditions: for Growth on substrate: C. coskatii PS02, 1 g/L carbon source, N2:CO2 (80%:20%), OD600
Description: as §3

C. coskatii PS02 [10] = experiment: as above; type: cell-based; conditions: Clostridium coskatii (PS02); absence of yeast extract
[11] = system: Clostridium coskatii (PS02)
[12] = system: Clostridium coskatii (PS02); remark: listed apart in the source
Source text: In general, fermentation will be allowed to proceed until a desired level of product such as ethanol is produced in the culture media. Typically, this level of ethanol is in the range of at least 15 grams/liter of culture medium to 50 grams/liter, with a level of at least 30 grams/liter being preferable. […] In addition, continuous culture techniques exist which allow the continual replenishment of fresh culture medium with concurrent removal of used medium, including any liquid products therein (i.e. the chemostat mode).

Row | Compound | Antibiotic susceptibility pattern (+ indicates growth) (C. autoethangenum [1]) | Antibiotic susceptibility pattern (+ indicates growth) (C. ragsdalei [2]) | Antibiotic susceptibility pattern (+ indicates growth) (C. ljungdahlii PETC [3]) | Antibiotic susceptibility pattern (+ indicates growth) (C. coskatii PS02 [4]) | Resistance to antibiotic (in words) (C. coskatii PS02 [4]) | also measured
1 | Colistin | + (+ indicates growth) | + (+ indicates growth) | + (+ indicates growth) | + (+ indicates growth) | resistant | –
2 | Tris(hydroxymethyl)aminomethane | – | – | – | – | – | pKa [5]: 7.72
3 | Penicillin | + (+ indicates growth) | + (+ indicates growth) | + (+ indicates growth) | + (+ indicates growth) | resistant | –
4 | [H]/N=C(/N)N[C@H]1[C@H](O)[C@@H](O)[C@H](O[C@@H]2O[C@@H](C)[C@](O)(C=O)[C@H]2O[C@@H]2O[C@@H](CO)[C@H](O)[C@@H](O)[C@@H]2NC)[C@@H](N/C(N)=N\[H])[C@@H]1O [Streptomycin] | + (+ indicates growth) | + (+ indicates growth) | + (+ indicates growth) | + (+ indicates growth) | resistant | –
5 | CN[C@@H]1[C@H](O)[C@H](NC)[C@H]2O[C@@]3(O)C(=O)C[C@@H](C)O[C@H]3O[C@@H]2[C@H]1O [Spectinomycin] | + (+ indicates growth) | + (+ indicates growth) | + (+ indicates growth) | + (+ indicates growth) | resistant | –
6 | [C-]#[O+] [CO] | – | – | – | – | – | Growth on substrate (C. autoethangenum [6]): + (A positive growth response was recorded for an OD600 exceeding 0.2 AU); Growth on substrate (C. ragsdalei [7]): + (A positive growth response was recorded for an OD600 exceeding 0.2 AU); Growth on substrate (C. ljungdahlii PETC [8]): + (A positive growth response was recorded for an OD600 exceeding 0.2 AU); Growth on substrate (C. coskatii PS02 [9]): + (A positive growth response was recorded for an OD600 exceeding 0.2 AU); Chemolithoautotrophic growth (in words) (C. coskatii PS02 [10]): occurred
7 | CC[C@H]1OC(=O)[C@H](C)[C@@H](O[C@H]2C[C@@](C)(OC)[C@@H](O)[C@H](C)O2)[C@H](C)[C@@H](O[C@@H]2O[C@H](C)C[C@H](N(C)C)[C@H]2O)[C@](C)(O)C[C@@H](C)C(=O)[C@H](C)[C@@H](O)[C@]1(C)O [Erythromycin] | – | – | + (+ indicates growth) | + (+ indicates growth) | resistant | Resistance to antibiotic (in words) (C. ljungdahlii PETC [3]): Resistance
8 | O=S(=O)(O)CCN1CCOCC1 [MES, 2-(N-morpholino)ethanesulfonic acid] | – | – | – | – | – | pKa [5]: 5.97
9 | O=C(N[C@H](CO)[C@H](O)c1ccc([N+](=O)[O-])cc1)C(Cl)Cl [Chloramphenicol] | – | – | – | + (+ indicates growth) | resistant | –
10 | CCn1cc(C(=O)O)c(=O)c2ccc(C)nc21 [Nalidixic acid] | + (+ indicates growth) | + (+ indicates growth) | + (+ indicates growth) | + (+ indicates growth) | resistant | –
11 | O=S(=O)(O)CCN1CCN(CCS(=O)(=O)O)CC1 [PIPES, piperazine-N,N′-bis(2-ethanesulfonic acid] | – | – | – | – | – | pKa [5]: 6.66
12 | CC(=O)O [acetic acid] | – | – | – | – | – | Concentration of undissociated acetic acid at which cell growth was significantly inhibited [11]: exceeded 50 mM
13 | CCO [Ethanol] | – | – | – | – | – | Growth on substrate (C. autoethangenum [6]): + (A positive growth response was recorded for an OD600 exceeding 0.2 AU); Growth on substrate (C. ragsdalei [7]): + (A positive growth response was recorded for an OD600 exceeding 0.2 AU); Growth on substrate (C. ljungdahlii PETC [8]): + (A positive growth response was recorded for an OD600 exceeding 0.2 AU); Growth on substrate (C. coskatii PS02 [9]): + (A positive growth response was recorded for an OD600 exceeding 0.2 AU); Ethanol concentration in which the organism remains viable and will grow [12]: at least 60 grams/liter
14 | CC1(C)S[C@@H]2[C@H](NC(=O)C(C(=O)O)c3ccccc3)C(=O)N2[C@H]1C(=O)O (stereo partly drawn) [Carbenicillin] | – | – | + (+ indicates growth) | + (+ indicates growth) | Resistance | Resistance to antibiotic (in words) (C. ljungdahlii PETC [3]): Resistance
15 | O=C(O)CCC(=O)C(=O)O [Alpha-ketoglutarate] | – | – | – | – | – | Growth on substrate (C. autoethangenum [6]): + (A positive growth response was recorded for an OD600 exceeding 0.2 AU); Growth on substrate (C. ragsdalei [7]): + (A positive growth response was recorded for an OD600 exceeding 0.2 AU); Growth on substrate (C. ljungdahlii PETC [8]): + (A positive growth response was recorded for an OD600 exceeding 0.2 AU); Growth on substrate (C. coskatii PS02 [9]): + (A positive growth response was recorded for an OD600 exceeding 0.2 AU); Chemoorganotrophic growth on substrate (in words) (C. coskatii PS02 [9]; Clostridium coskatii (PS02)): growth was observed
